Experimental data published in patent US8168199B2, “Dipeptidyl peptidase IV inhibitors for the treatment of schizophrenia and depression” (priority 2000, dated 2012).

Tests used:
[1] = system: Male WistarF/Han (WF) rats; assay: 1 h food-intake with Y1R antagonist BIBP3226, P32/98 and NPY (Example 4); assay type: in vivo, rat; conditions: i.c.v. 50 nmol
Description: (§1) Animals. Male WistarF/Han (WF) rats (Central Animal Laboratory, Hannover Medical School, Hannover, Germany, weighing 330±31 g±SD, were housed in a sound-proof, temperature controlled (24.0±0.5° C.) room under specific pathogen free conditions with a 12/12 h dark/light cycle (lights on at 07.00 with illumination level of 80 Lux). Food (Altromin lab chow pellets) and tap water were available ad libitum. Under ketamine/xylasine (100/5 mg/kg, i.p.) anesthesia, the rats were fixed in a Kopf stereotaxic frame and implanted with cannulae (Plastic One, Inc., Roanoke, Va., USA) above the lateral ventricle. All research and animal care procedures were approved by the Lower Saxony district government (Hannover, Germany) and followed principles described in the European Community's Council Directive of 24 Nov. 1986 (86/609/EEC).
(§2) Surgery and i.c.v. application. […]
(§3) Animals were randomly divided into eight experimental groups (n=6-8/group), which completed one SI test of anxiety: (1) aCSF+aCSF+aCSF; (2) BIBP+aCSF+aCSF; (3) aCSF+P32/98+aCSF; (4) BIBP+P32/98+aCSF; (5) aCSF+aCSF+NPY; (6) BIBP+aCSF+NPY; (7) aCSF+[…]+NPY; (8) BIBP+P32/98+NPY. […] The time spent in active social interaction (SI-time), 1 h, and 12 h food-intake were measured. […]
(§4) Statistical analysis. Data obtained from the measures SI time and 1 h food intake were analyzed by one-way (factor: “treatment”) ANOVA. […]

[2] = system: Male WistarF/Han (WF) rats; assay: Social interaction (SI) test with Y1R antagonist BIBP3226, P32/98 and NPY (Example 4); assay type: in vivo, rat; conditions: i.c.v. 50 nmol
Description: as §1, §2, §3
Social interaction (SI) test. […] Behavior was monitored using a video camera placed above the field inside the testing/isolation box. The SI behavior of both rats was recorded on-line from a monitor placed outside on top of the box. The following parameters were scored by an observer (HPN) unaware of the substrain of rats: duration of time spent in sniffing, following, crawling under and over other rats, but not passive body contact (resting, sleeping). […]
as §4

Q: What does the source list for `CC[C@H](C)[C@H](N)C(=O)N1CCSC1` [P32/98]?
A: 1 h food-intake, P32/98 alone [1]: non-significant slight increase of feeding; SI-time, P32/98 alone [2]: acts not anxiolytic-like
